{
  "source": "paper PMC9979976",
  "about": "(Acta Crystallographica. Section F, Structural Biology …, 2023)",
  "molecules": {"B1": {"name": "Chloramphenicol acetyltransferase III (enzyme)", "chain": "SGGNYTKFDVKNWVRREHFEFYRHRLPCGFSLTSKIDITTLKKSLDDSAYKFYPVMIYLIAQAVNQFDELRMAIKDDELIVWDSVDPQFTVFHQETETFSALSCPYSSDIDQFMVNYLSVMERYKSDTKLFPQGVTPENHLNISALPWVNFDSFNLNVANFTDYFAPIITMAKYQQEGDRLLLPLSVQVHHAVCDGFHVARFINRLQELCNSKLK", "notes": "cloning artifact left after TEV cleavage (Ser-Gly-Gly before Asn2); two Zn2+ modelled at contacts between trimers; also called CATIII; CATIII+GG; source: E. coli BL21(DE3), purified (HisTrap HP, TEV cleavage, second HisTrap HP); not shown: His6, N-terminal, cleaved"}},
  "key": {"[1]": {"target": "T1, CATIII (chloramphenicol acetyltransferase III; CATIII+GG) (Escherichia coli, UniProt P00484)", "T1 construct": "gene cat3; synthetic gene, full length without Met1; expressed in E. coli BL21(DE3); trimer", "experiment": "X-ray crystal structure, […] A", "type": "binding"}, "[2]": {"target": "the molecule itself", "experiment": "crystal structure; CATIII+GG at 24 mg/ml co-crystallised with 10 mM partially hydrolysed AcOCoA and saturating chloramphenicol; hanging drop, 46% PEG 400, 100 mM MgCl2, 0.1 M sodium citrate pH 5.5; space group P4(2)2(1)2, 1.68 A"}},
  "data": [
    {"molecule": "CC(=O)OCCNC(=O)CCNC(=O)[C@H](O)C(C)(C)COP(=O)(O)OP(=O)(O)OC[C@H]1O[C@@H](n2cnc3c(N)ncnc32)[C@H](O)[C@@H]1OP(=O)(O)O", "note": "[AcOCoA, acetyl-oxa(dethia)CoA]", "values": [
      {"measurement": "X-ray crystal structure, 1.68 A", "setting": "[1]; co-crystallized with 10 mM AcOCoA (partly hydrolysed) and saturated chloramphenicol, pH 5.5, 298 K, active site, clearest in chain A, unreactive substrate analog", "value": "In monomer A we can clearly model the position of the acetyl group"}
    ]},
    {"molecule": "CC(C)(COP(=O)(O)OP(=O)(O)OC[C@H]1O[C@@H](n2cnc3c(N)ncnc32)[C@H](O)[C@@H]1OP(=O)(O)O)[C@@H](O)C(=O)NCCC(=O)NCCO", "note": "[OCoA, oxa(dethia)CoA]", "values": [
      {"measurement": "X-ray crystal structure, 1.68 A", "setting": "[1]; minor species (about 20% in monomer A) mixed with AcOCoA, with chloramphenicol, pH 5.5, active site", "value": "Our structures here reveal a mixture of bound AcOCoA and OCoA"}
    ]},
    {"molecule": "O=C(N[C@H](CO)[C@H](O)c1ccc([N+](=O)[O-])cc1)C(Cl)Cl", "note": "[chloramphenicol]", "values": [
      {"measurement": "X-ray crystal structure, 1.68 A", "setting": "[1]; co-crystallized at saturation with AcOCoA/OCoA, pH 5.5, 298 K, active site of each monomer", "value": "Our CATIII structure has clear electron density for chloramphenicol in each monomer"}
    ]},
    {"molecule": "B1", "values": [
      {"measurement": "stoichiometry N", "setting": "[2]", "value": 3}
    ]}
  ]
}
